In US5707838A, “Antibiotic produced by Pseudomonas sp. and process for the preparation thereof” (priority 1994, dated 1998):

Test system: M. gallisepticum (MG) field-isolated strain T
Experiment: In vivo test on chickens inoculated with M. gallisepticum in right air sacs
Conditions: oral, 5 chickens tested, autopsy 7th day

Row | Structure (SMILES) | No. of lesions of right air sacs: -- (1 × 50 mg/kg) | No. of lesions of right air sacs: Moderate to severe (1 × 50 mg/kg) | No. of lesions of right air sacs: Slight (1 × 50 mg/kg) | No. of lesions of right air sacs: -- (1 × 100 mg/kg) | No. of lesions of right air sacs: Moderate to severe (1 × 100 mg/kg) | No. of lesions of right air sacs: Slight (1 × 100 mg/kg) | No. of lesions of right air sacs: -- (1 × 200 mg/kg) | No. of lesions of right air sacs: Moderate to severe (1 × 200 mg/kg) | No. of lesions of right air sacs: Slight (1 × 200 mg/kg)
1 | CN(C)[C@@H]1C(O)=C(C(N)=O)C(=O)[C@@]2(O)C(O)=C3C(=O)c4c(O)ccc(Cl)c4[C@@](C)(O)[C@H]3C[C@@H]12 [CTC, Chlortetracycline] | 1 | 3 | 1 | 2 | 2 | 1 |  |  | 
2 | CC[C@H]1OC(=O)C[C@@H](O)[C@H](C)[C@@H](O[C@@H]2O[C@H](C)[C@@H](O[C@H]3C[C@@](C)(O)[C@@H](O)[C@H](C)O3)[C@H](N(C)C)[C@H]2O)[C@@H](CC=O)C[C@@H](C)C(=O)/C=C/C(C)=C/[C@@H]1CO[C@@H]1O[C@H](C)[C@@H](O)[C@@H](OC)[C@H]1OC [TS, Tylosin] |  |  |  | 1 | 4 | 0 | 0 | 2 | 3
